One assay has as its target T1, KCC3 (Homo sapiens, UniProt Q9UHW9).
T1 construct: expressed in transfected cells; host or cells: HEK-293
T1 sequence (Q9UHW9 1-1150): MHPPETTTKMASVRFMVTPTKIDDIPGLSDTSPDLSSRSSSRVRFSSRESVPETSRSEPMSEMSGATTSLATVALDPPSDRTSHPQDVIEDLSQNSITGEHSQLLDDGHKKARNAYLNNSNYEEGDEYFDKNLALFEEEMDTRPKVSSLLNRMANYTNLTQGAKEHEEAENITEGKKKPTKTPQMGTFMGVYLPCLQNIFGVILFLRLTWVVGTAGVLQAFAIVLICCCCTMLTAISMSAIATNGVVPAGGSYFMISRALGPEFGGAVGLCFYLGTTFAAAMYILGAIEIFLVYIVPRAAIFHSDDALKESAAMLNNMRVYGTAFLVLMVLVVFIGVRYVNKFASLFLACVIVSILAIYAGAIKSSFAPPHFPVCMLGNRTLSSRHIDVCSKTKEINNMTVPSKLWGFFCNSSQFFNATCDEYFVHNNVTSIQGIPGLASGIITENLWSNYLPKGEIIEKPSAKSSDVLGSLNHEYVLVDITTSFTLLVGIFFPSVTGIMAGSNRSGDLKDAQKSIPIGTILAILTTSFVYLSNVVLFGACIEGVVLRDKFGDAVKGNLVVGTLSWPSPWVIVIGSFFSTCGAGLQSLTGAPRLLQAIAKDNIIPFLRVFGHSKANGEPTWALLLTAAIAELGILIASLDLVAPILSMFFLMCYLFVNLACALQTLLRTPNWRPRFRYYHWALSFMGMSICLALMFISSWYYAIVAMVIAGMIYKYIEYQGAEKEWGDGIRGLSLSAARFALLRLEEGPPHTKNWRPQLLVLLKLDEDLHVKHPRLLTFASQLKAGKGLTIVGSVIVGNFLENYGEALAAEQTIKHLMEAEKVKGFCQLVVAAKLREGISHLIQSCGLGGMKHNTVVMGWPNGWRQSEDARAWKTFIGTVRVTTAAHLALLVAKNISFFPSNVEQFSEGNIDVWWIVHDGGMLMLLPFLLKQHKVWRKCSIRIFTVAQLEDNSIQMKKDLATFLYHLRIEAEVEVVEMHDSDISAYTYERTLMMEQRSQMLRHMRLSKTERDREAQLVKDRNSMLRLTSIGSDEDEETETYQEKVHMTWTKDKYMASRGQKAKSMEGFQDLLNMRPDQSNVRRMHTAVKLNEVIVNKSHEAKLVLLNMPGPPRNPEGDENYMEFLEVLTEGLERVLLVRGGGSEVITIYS
The assay can be described thus: Tl+ flux assay, HEK-293 cells expressing KCC3. The format is cell-based. The note with it: read-out: concentration at which effects on KCC3 were seen. Here is the method:
(§1) FLIPR TI Flux assay. HEK-293 cells were washed with HBSS, and then incubated with loading buffer containing TI sensitive fluorescent dye (https://www.moleculardevices.com), 20 μM bumetanide 20 μM ouabain and 2.5 mM probenecid for 1 h at room temperature (RT) under control conditions or with drugs in the dark using a FlexStation 3 microplate reader (Molecular Devices) and imaged […] for 30 min. Stimulus buffer was added containing 5 mM K^+/0.5 mM Tl^+ and cells were imaged every 1.5 over a 190 second time course The initial rate Tl^+ uptake (Relative Fluorescence Units (RFU) per second) was determined following addition of the stimulus buffer as outlined previously (Conway et al., 2017, supra) (Lee et al., 2022, supra).
(§2) Compared to KCC2, effects on KCC3, KCC4, and NKCC1 were only seen at concentrations more than 35-fold that of KCC2 (>100 μM) (FIG. 1G).

The next assay concerns the target T2, NKCC1 (Homo sapiens, UniProt P55011).
T2 construct: expressed in transfected cells; host or cells: HEK-293
T2 sequence (P55011 1-1212): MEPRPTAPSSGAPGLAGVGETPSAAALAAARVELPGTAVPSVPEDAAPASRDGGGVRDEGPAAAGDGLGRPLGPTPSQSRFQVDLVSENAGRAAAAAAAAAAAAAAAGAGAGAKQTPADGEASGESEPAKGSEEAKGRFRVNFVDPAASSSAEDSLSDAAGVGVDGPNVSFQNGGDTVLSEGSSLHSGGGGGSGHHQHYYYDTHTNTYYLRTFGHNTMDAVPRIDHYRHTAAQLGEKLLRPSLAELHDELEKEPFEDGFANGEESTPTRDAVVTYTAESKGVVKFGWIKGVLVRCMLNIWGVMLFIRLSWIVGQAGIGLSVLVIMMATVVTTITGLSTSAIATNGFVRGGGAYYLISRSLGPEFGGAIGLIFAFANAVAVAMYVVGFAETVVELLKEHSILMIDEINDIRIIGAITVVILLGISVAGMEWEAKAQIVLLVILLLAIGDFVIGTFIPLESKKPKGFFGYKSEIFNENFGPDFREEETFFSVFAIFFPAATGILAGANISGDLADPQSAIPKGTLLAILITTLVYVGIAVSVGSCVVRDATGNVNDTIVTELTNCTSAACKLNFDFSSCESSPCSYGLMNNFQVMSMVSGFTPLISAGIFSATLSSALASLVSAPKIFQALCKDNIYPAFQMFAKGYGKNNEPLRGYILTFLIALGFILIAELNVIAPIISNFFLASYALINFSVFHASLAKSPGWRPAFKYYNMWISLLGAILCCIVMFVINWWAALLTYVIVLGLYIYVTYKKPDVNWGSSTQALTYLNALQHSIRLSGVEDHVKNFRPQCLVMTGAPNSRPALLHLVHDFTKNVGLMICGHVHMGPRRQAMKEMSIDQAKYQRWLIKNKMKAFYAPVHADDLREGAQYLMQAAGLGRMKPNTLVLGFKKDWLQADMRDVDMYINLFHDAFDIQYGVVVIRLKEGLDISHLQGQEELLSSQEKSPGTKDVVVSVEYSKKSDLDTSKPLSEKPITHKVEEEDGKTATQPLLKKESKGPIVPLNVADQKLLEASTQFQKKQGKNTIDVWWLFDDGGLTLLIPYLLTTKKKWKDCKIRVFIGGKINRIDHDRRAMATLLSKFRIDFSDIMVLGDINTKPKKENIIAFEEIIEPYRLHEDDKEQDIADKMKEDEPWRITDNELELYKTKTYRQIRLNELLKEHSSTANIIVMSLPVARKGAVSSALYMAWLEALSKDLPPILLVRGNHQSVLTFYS
Briefly: Tl+ flux assay, HEK-293 cells expressing NKCC1. The format is cell-based. The note with it: read-out: concentration at which effects on NKCC1 were seen. Here is the method:
as §1, §2

The subject of another assay is acute brain slices. The assay can be described thus: Late recurrent discharges in acute brain slices exposed to 0-Mg.

The structures appear in SMILES notation.

With `C[C@@H]1CN(c2nc3c(c(Nc4ccc(C5CCCCC5)cc4)n2)COC3)CCO1` [Compound A, (R)—N-(4-cyclohexylphenyl)-2-(2-methylmorpholino)-5,7-dihydrofuro[3,4-d]pyrimidin-4-amine], the EC50 at KCC3 and on NKCC1 was > 100 µM throughout. Moreover, the “development of late recurrent discharges (LRDs)” value in the assay with acute brain slices is recorded as “reduced”.

The values above are taken from US20260048062A1, “FUSED AMINO PYRIMIDINE COMPOUNDS FOR TREATMENT OF PSYCHOSIS AND PSYCHOTIC DISORDERS” (Ovid Therapeutics Inc., priority 2024, published 2026).
